Assay results as given in publication PMC8602723, “Comparative assessment of antimicrobial, antiradical and cytotoxic activities of cannabidiol and its propyl analogue cannabidivarin” (Scientific Reports, 2021).
Like-named read-outs stand apart in the source and are kept apart here.

Assays:
[1] = tested on: Escherichia coli (ATCC 13762); assay: Microbial susceptibility test (growth inhibition); format: cell-based; conditions: read-out: IC50 bacterial growth inhibition
Protocol: (§1) Escherichia coli (ATCC 13762) and S. aureus (ATCC 6538) were cultured overnight in tryptic soy broth and soybean-casein digestive medium (TSB, Oxoid, Milano, Italy) at 37 °C[70]. Subsequently, using 96-well plates (Sarstedt, Italy), 100 µL of TSB, 100 µL of CBD (5–160 µM, DF = 2) or CBDV (5.46–175 µM, DF = 2) and 100 µL of the bacterial culture corresponding to 1 × 10^4 CFU were added sequentially to each well. CBD and CBDV final concentrations in wells equal to 1.66–53 and 1.82–58.19 µM, respectively, were chosen on the basis of range-finding tests. TSB alone was used as the blank, physiologic solution (0.9% NaCl) was used as the negative control, methanol 5% v/v (final percentage in wells equal to 1.6% v/v) was used as the solvent control, and streptomycin at 60 µM (final concentration in the well equal to 20 µM) was used as the positive control. Experiments were conducted in sextuplicate. The plates were covered with sterile film to prevent evaporation and incubated at 37 °C. After 24, 48 and 72 h, the optical density of each well was recorded at 620 nm using a microplate reader. The bacterial growth inhibition percentage (IC%) was determined as follows:7 IC%=1-OD620testsample-OD620blank/OD620negativecontrol-OD620blank·100
(§2) All results from five independent experiments are expressed as the IC50 or EC50 as determined by analysis with Prism 5 software (GraphPad Inc., San Diego, CA, USA) and nonlinear regression (log agonist vs. normalized response-variable slope) with a 95% confidence range. Lowest observed adverse effect concentrations (LOAECs) were calculated by one-way ANOVA and Dunnett’s comparison test. Differences compared to the controls were considered significant as follows: *p < 0.05, **p < 0.001 and ***p < 0.0001.

S. aureus (ATCC 6538) = assay: Microbial susceptibility test (growth inhibition); format: cell-based; conditions: Staphylococcus aureus, read-out: IC50 bacterial growth inhibition
Protocol: as §1, §2

[2] = DPPH assay (radical scavenging); conditions: for DPPH scavenging capacity less than the capacity of Trolox: compared with Trolox
Protocol: DPPH assay was performed following the protocol described by Brand-Williams et al.[69]. DPPH^⋅ was dissolved in methanol, generating a purple solution (101.43 µM). […] Furthermore, 940 μL of methanol and 60 μL of distilled water were used for the blank. Trolox was used as the standard control, and methanol was used as the solvent control.
The results were expressed as the median effective concentration of sample able to reduce the initial absorbance of the DPPH radical (EC50). Furthermore, TEAC values were calculated in line with Shimamura end colleagues[68] as previously reported.
as §2

A549 cells = assay: LDH assay (plasma membrane damage); format: cell-based; conditions: Homo sapiens, read-out: IC50 LDH assay
Protocol: (§3) LDH assay is a high-throughput method based on the release of the LDH cytoplasmic enzyme from the cytosol into the extracellular space when the plasma membrane is damaged[29],[30]. Plasma membrane damage related to the amount of lysed cells was monitored by LDH assay, and the results were used for indirectly detecting the necrosis correlated to the leakage of the cytosolic enzyme due the loss of membrane permeability control[29],[30]. This assay was performed with the protocol described by Lehmann and colleagues.
(§4) Briefly, 1 × 10^4 A549 and Caco-2 cells and 2 × 10^4 HepG2, MDA-MB-231 and TelCOFS02MA cells were seeded in 100 µL of 1% FBS-fresh medium in each well of 96-well plates and incubated for 24 h at 37 °C with 95% humidity and 5% CO2. Then, the medium was removed and replaced with 100 µL of medium with different concentrations of CBD and CBDV, which were chosen on the basis of range-finding tests (as previously indicated). The plates were incubated at 37 °C for 72 h. In all experiments, the background control (wells with medium and without cells to obtain information about the LDH activity in the assay medium), low control (wells containing cells exposed only to the medium to determine spontaneous LDH release), high control (wells containing cells exposed to 2% Triton-X100 for 10 min before performing the assay to determine maximum LDH release), and solvent controls (2.5% methanol) were included. One hundred microlitres of supernatant was removed carefully from each well and transferred into corresponding wells in optically clear 96-well flat bottom microplates. One hundred microlitres of freshly prepared reaction mixture (Diaphorase (Catalyst)/NAD^+ /INT/sodium lactate) was added to each well and incubated for 30 min at 20 °C in darkness. Thus, NAD^+ was reduced to NADH/H^+ by the LDH-catalysed conversion of lactate to pyruvate. Then, the catalyst transferred H/H^+ from NADH/H^+ to the tetrazolium salt INT, which was reduced to formazan. To arrest the reaction, 50 µL/well of 1 N HCl was added. The spectrophotometric absorbance was determined at 492 nm. The absorbance of the background control wells was subtracted from all other values.
(§5) The results are reported as percentages of cytotoxicity, which is linked to the percentage of LDH released from damaged plasma membranes, calculated as follows:3 IC%=OD492sample-OD492lowcontrol/OD492highcontrol-OD492lowcontrol·100
(§6) IC50 values (concentrations of the sample to obtain 50% cytotoxicity) were calculated.
as §2

Caco-2 cells = assay: LDH assay (plasma membrane damage); format: cell-based; conditions: Homo sapiens, read-out: IC50 LDH assay
Protocol: as §3, §4, §5, §6, §2

Hep G2 cells = assay: LDH assay (plasma membrane damage); format: cell-based; conditions: Homo sapiens, read-out: IC50 LDH assay
Protocol: as §3, §4, §5, §6, §2

MDA-MB-231 cells = assay: LDH assay (plasma membrane damage); format: cell-based; conditions: Homo sapiens, read-out: IC50 LDH assay
Protocol: as §3, §4, §5, §6, §2

Structure (SMILES)	IC50 ([1]; ATCC13762, E. coli, 72 h of incubation, 95% confidence range in brackets)	IC50 (S. aureus (ATCC 6538); ATCC6538, S. aureus, 24 h of exposure, 95% confidence range in brackets)	IC50 (S. aureus (ATCC 6538); ATCC6538, S. aureus, 48 h of exposure, 95% confidence range in brackets)	IC50 (S. aureus (ATCC 6538); ATCC6538, S. aureus, 72 h of exposure, 95% confidence range in brackets)	DPPH scavenging capacity less than the capacity of Trolox [2]	IC50 (A549 cells; A549, 72 h exposure, 95% confidence interval in brackets)	IC50 (Caco-2 cells; Caco-2, 72 h exposure, 95% confidence interval in brackets)	IC50 (Hep G2 cells; HepG2, Hep G2, 72 h exposure, 95% confidence interval in brackets)	IC50 (MDA-MB-231 cells; MDA-MB-231, 72 h exposure, 95% confidence interval in brackets)	IC50 ([1]; ATCC13762, 72 h)	IC50 (S. aureus (ATCC 6538); ATCC6538, 72 h)	TEAC (Trolox equivalent antioxidant capacity), DPPH ([2]; EC50 Trolox/EC50 sample)	IC50 (A549 cells; A549, 72 h)	IC50 (Caco-2 cells; Caco-2, 72 h)	IC50 (Hep G2 cells; HepG2, 72 h)	IC50 (MDA-MB-231 cells; MDA-MB-231, 72 h)
C=C(C)[C@@H]1CCC(C)=C[C@H]1c1c(O)cc(CCCCC)cc1O [CBD, Cannabidiol]	29.1 µM	10.3 µM	4.86 µM	1.84 µM	90%	24 µM	22.8 µM	18.1 µM	22.1 µM							
C=C(C)[C@@H]1CCC(C)=C[C@H]1c1c(O)cc(CCC)cc1O [CBDV, cannabidivarin]					91%					35.5 µM	30.8 µM	0.09	26.3 µM	29.1 µM	21.2 µM	33.8 µM
